Measured values published in patent US5625044A, “Methods for the preparation of pure homologous series of mono to tetra fatty acyl esters of sugars and pharmaceutical formulations useful in the treatment of cancer” (Goudreau Gage Dubec & Martineau, priority 1994, dated 1997).
“Also recorded” adds a separate entry of the source.

How the values were obtained:
[1] = Tolerance and immunosuppression of angiostatic steroids
Procedure: The doses were: 150 mg/kg of body weight/day for the first two days, 125 mg/kg of body weight/day for the next two days, 100 mg/kg of body weight/day for the next two days, and then a maintenance dose of 75 mg/kg of body weight/day was used for the remaining duration of the treatment, for a total of 20-25 days. […] Therefore, the dosage rate of steroids might also be adjusted, according to the patients' response, which is left to the clinician;

[2] = in vivo; cited from earlier work
C3HBA = assay: Antitumor activity of maltose palmitates against C3HBA fragment implanted s.c. in C3H/HeN females; type: in vivo, C3H/HeN mice; conditions: ip. 3 times weekly, 10 μg (individual palmitates)
Description: The scientific and patent literature on tri-fatty acyl disaccharides is non existent. This compound has not been obtained as a single entity. The compound forms complexes and rarely appeared as a pure band in our investigations. However, when the mixture is subjected to HPLC as described in I, we obtain sufficient quantities of di, tri and tetra palmitates. This allowed us to test each of these components individually and in combinations. Briefly, the following results were obtained using C3HBA fragment implanted s.c. in C3H/HeN females.

Naik As cells = assay: In vitro growth inhibition of angiosarcoma cell line Naik-AS; type: cell-based
Description: The in vitro growth of an angiosarcoma cell line (Naik-AS) developed by us was studied in the presence and absence of maltose tri- and tetrapalmitates.

[3] = Degradation of labelled maltose palmitates in tissues (14C/3H ratio of ethanolic extract); set-up: species or system mice; conditions: mouse, in vivo
Procedure: The ^3 H-palmitoyl chloride and the ^14 C-maltose (as prepared earlier) were mixed in a total volume of 500 μl of dimethyl formamide (DMF). To the mixture was added 100 μl pyridine and the contents were heated for 14 h at 60° C. in a nitrogen atmosphere. The product was then evaporated under reduced pressure at 60° C. to remove the solvents. It was dissolved in 400 μl of absolute ethanol. Pyridine hydrochloride was removed by adding the dissolved crude reaction product to 1 ml ice cold water in an Eppendorf tube. The resulting suspension was centrifuged at 4° C. for 10 min and the supernatant was discarded. The product was dried for 48 hours in a vacuum desiccator and then was extracted with three 10 μl portions of methanol at room temperature. The methanol extract was subjected to reverse phase HPLC using a methanol eluent and detection at 214 nm at a flow rate of 0.5 ml/min and a 3.9 mn×15 cm Waters Resolve C18 5μ column. Two components eluting at 19.1 and 24.1 min which corresponded to the two isomers of maltose tetrapalmitate were collected. […] The tissue extracts were analyzed for ^3 H and ^14 C for non metabolized MTP and its degradation products by scintillation counting. […]
The ratio of degradation calculated on the basis of slope of ^14 C/^3 H ratio between 24 h and 48 h, in ethanolic extract indicated the following order of degradation, with liver taken as 100: […]

[4] = system: cultured endothelial cells; type: in vitro ADME
tumor cells = assay: Antitumor activity of individual maltose palmitates (summary statements); type: in vivo; conditions: comparison of maltose palmitates
[5] = rodents, 150 down to 75 mg/kg of body weight/day, 20-25 days

Q: Which “tolerance at high doses” value [1, 5] does the source give for `CC(=O)[C@@]1(O)CC[C@H]2[C@@H]3CCC4=CC(=O)CC[C@]4(C)[C@H]3CC[C@@]21C` [17-β-OH progesterone] here?
A: rodents tolerate them

Q: For `C[C@]12CCC(=O)C=C1CC[C@@H]1[C@@H]2CC[C@@]2(C)[C@H]1CC[C@]2(O)C(=O)CO` [cortexolone], which “tolerance at high doses” value ([1]; in vivo) is on record?
A: rodents tolerate them

Q: For `C[C@]12CCC(=O)C=C1CC[C@@H]1[C@@H]2[C@@H](O)C[C@@]2(C)[C@H]1CC[C@]2(O)C(=O)CO` [hydrocortisone], which “tolerance at high doses” value [1, 5] is on record?
A: rodents tolerate them

Q: And the immunosuppression [2]?
A: at high doses, it is immunosuppressive; also recorded: highly immunosuppressive

Q: Which results are given for `CCCCCCCCCCCCCCCC(=O)OC[C@H]1O[C@H](O[C@H]2[C@H](O)[C@@H](O)C(OC(=O)CCCCCCCCCCCCCCC)O[C@@H]2COC(=O)CCCCCCCCCCCCCCC)[C@H](O)[C@@H](O)[C@@H]1O` (stereo partly shown) [maltose tripalmitate, maltose 1, 6, 6' tri palmitate]?
A: Day of tumor appearance after implantation (C3HBA): 14 to 16 days; % Inhibition of growth of Naik As cells in culture (Naik As cells; 5 μg/ml, 30 hours): 30%; % Inhibition of growth of Naik As cells in culture (Naik As cells; 5 μg/ml, 60 hours): 17%; % Inhibition of growth of Naik As cells in culture (Naik As cells; 5 μg/ml, 105 hours): 10%; % Inhibition of growth of Naik As cells in culture (Naik As cells; .625 μg/ml, 30 hours): 25%; % Inhibition of growth of Naik As cells in culture (Naik As cells; .625 μg/ml, 60 hours): 11%; % Inhibition of growth of Naik As cells in culture (Naik As cells; .625 μg/ml, 105 hours): 4%; in vitro growth of angiosarcoma cell line (Naik-AS), in words (Naik As cells; time course in words): inhibited growth on the first 30 hours which response declined as it got degraded; retention time in tissues / degradation, in words [3]: followed by maltose tripalmitate; degradation by cultured endothelial cells [4]: Degradation also occurred; antitumor activity, in words (tumor cells): most active component

Q: With `C[C@]12CC[C@@H](O)C[C@H]1CC[C@@H]1[C@@H]2CC[C@@]2(C)[C@H]1CC[C@]2(O)C(=O)CO` [tetra hydro S] as the compound, how does the “tolerance at high doses” value [1, 5] read?
A: rodents tolerate them
